This is an account of results in US7585859B2, “PDE4B inhibitors and uses therefor” (Plexxikon, Inc., priority 2004, dated 2009).

Where only a bound is given, the exact number is not on record here.

What all share (format): biochemical
Assay [1] deals with T1, PDE4B: The catalytic domain of human PDE4B from S152-S528 (Homo sapiens, UniProt Q07343).
T1 construct: His6 (N); thrombin cleavage site (N); made in house; host or cells: E. coli
Description: PDE4 IC50 determination by Scintillation Proximity Assay, PDE4B. As to conditions: Table 1B, Formula I compounds; read-out: IC50 PDE4B. The essentials: (§1)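 Scintillation counts reflected [^3H]AMP captured on yttrium silicate SPA beads after enzyme hydrolysed [^3H]cAMP for 30 min at 30°. PDE4B was used at 80 ng/ml and PDE4D at 4 ng/ml. IC50 values came from non-linear regression.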
(In general: In a scintillation proximity assay essentially only radioactivity close to the scintillant gives light.)

For another assay, the target named is T2, PDE4D (Homo sapiens, UniProt Q08499).
T2 construct: PDE4D: The catalytic domain of human PDE4B from S3 16-V692; His6 (N); thrombin cleavage site (N); made in house; host or cells: E. coli
T2 sequence (Q08499 380-756): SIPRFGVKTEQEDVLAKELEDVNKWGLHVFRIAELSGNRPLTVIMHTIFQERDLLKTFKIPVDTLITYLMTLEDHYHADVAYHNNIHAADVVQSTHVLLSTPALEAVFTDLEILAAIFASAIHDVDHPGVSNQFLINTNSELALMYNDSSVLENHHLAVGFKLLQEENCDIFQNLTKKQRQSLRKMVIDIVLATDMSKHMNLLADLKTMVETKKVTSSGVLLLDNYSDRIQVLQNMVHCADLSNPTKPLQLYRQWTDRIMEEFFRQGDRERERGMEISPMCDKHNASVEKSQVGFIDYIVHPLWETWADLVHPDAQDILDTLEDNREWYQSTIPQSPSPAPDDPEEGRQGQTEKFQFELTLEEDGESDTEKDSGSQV
The assay can be described thus: PDE4 IC50 determination by Scintillation Proximity Assay, PDE4D. The conditions noted are these: Table 1B, Formula I compounds; read-out: IC50 PDE4D. The essentials:
as §1

The target of assay [2] is T3, full-length human PDE4B2 isozyme (Homo sapiens, UniProt Q07343).
T3 construct: The full-length human PDE4B2 isozyme; His6 (N); TEV cleavage site (N); made in house; host or cells: baculovirus infected insect cells (unpurified lysate)
T3 sequence (Q07343 1-564 isoform Q07343-2): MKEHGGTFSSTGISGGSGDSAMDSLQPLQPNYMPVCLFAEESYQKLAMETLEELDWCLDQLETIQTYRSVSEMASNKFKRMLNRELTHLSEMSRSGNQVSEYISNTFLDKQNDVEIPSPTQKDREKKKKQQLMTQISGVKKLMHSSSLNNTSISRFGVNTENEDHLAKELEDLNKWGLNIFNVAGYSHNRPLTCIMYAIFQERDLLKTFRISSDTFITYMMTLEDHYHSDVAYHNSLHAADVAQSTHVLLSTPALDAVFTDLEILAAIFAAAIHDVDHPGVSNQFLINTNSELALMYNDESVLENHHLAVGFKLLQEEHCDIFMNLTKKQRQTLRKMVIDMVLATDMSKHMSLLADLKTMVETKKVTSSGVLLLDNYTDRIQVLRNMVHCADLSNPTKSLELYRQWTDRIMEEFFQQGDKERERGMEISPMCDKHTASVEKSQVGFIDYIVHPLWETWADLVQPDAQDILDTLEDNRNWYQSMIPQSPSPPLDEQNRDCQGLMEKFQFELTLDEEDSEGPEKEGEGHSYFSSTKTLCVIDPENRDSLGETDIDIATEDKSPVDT
The assay can be described thus: PDE4 IC50 determination by Scintillation Proximity Assay, PDE4B2. The conditions noted are these: Table 1B, Formula I compounds; read-out: IC50 PDE4B2. Here is the method: (§2) IC50s were determined by Scintillation Proximity Assay (SPA). The principle of the assay is based on the fact that cAMP, the PDE4 substrate, binds weakly to Yittrium Silicate SPA beads, whereas AMP, the product of PDE4 hydrolysis binds strongly. Thus, the extent of PDE4 hydrolysis of a sample of [^3H]cAMP can be measured because only the
(§3) [^3H]AMP produced by PDE4 hydrolysis will bind to the SPA beads and produce a scintillation signal.
(§4) PDE4 enzymes used for IC50 assays were:
PDE4B2: The full-length human PDE4B2 isozyme with an N-terminal His6 tag (SEQ ID NO: 18) and TEV cleavage site expressed in baculovirus infected insect cells. The enzyme was not purified from the cell lysates, so enzyme concentrations were not determined. Enzyme was stored in 50% glycerol at −20°.
(§5) Compounds tested (see Tables 3B, 4B and 5A for compounds and results) were 3-fold serially diluted 11 times in DMSO from a starting concentration of 4 mM or 40 μM, depending on compound potency. 1 μl of each dilution was transferred into duplicate wells of a white polystyrene 384-well assay plate (Coming #3705). In addition to the compound dilutions, each assay plate contained control wells with 1 μl of DMSO (to define 0% enzyme inhibition) or 1 μl of 200 μM roflumilast (to define 100% enzyme inhibition). Using a Beckman FX robot, 10 μl of [^3H] cAMP (Amersham TRK559) at 2 mCi/ml in assay buffer (50 mM Tris, pH 7.5; 8.3 mM MgCl; 1.7 mM EGTA; 0.01% BSA) was transferred to each assay well. Next, 10 μl of PDE4 enzyme in assay buffer was added and the plates were shaken for 30 s. at 1000 rpm to start the cAMP hydrolysis reaction. The concentrations of enzyme used were: PDE4B, 80 ng/ml; PDE4D, 4 ng/ml; PDE4B2, 2.5 μl of 50% glycerol stock/ml; PDE4D5 0.083 μl of 50% glycerol stock/ml. Assay plates were covered and incubated for 30 min. at 30°. Reactions were stopped by robotic addition of 10 μl of 5 mg/ml SPA beads (Amersham RPNQ0013) in 18 mM ZnSO4. The assay plates were covered with clear plastic film, centrifuged for 1 min. at 1000 RPM to settle the SPA beads, and counted using a Wallac TriLux scintillation counter. IC50's were calculated from the raw assay data by non-linear regression curve fitting using the Assay Explorer software package from MDL.

Assay [3] has as its target T4, full-length human PDE4D5 isozyme (Homo sapiens, UniProt Q08499).
T4 construct: The full-length human PDE4D5 isozyme; His6 (N); TEV cleavage site (N); made in house; host or cells: baculovirus infected insect cells (unpurified lysate)
The assay can be described thus: PDE4 IC50 determination by Scintillation Proximity Assay, PDE4D5. The conditions noted are these: Table 1B, Formula I compounds; read-out: IC50 PDE4D5. The method, then:
as §2, §3, §4
PDE4D5: The full-length human PDE4D5 isozyme with an N-terminal His6 tag (SEQ ID NO: 18) and TEV cleavage site expressed in baculovirus infected insect cells. The enzyme was not purified from the cell lysates, so enzyme concentrations were not determined. Enzyme was stored in 50% glycerol at −20°.
as §5

T4 sequence (Q08499 1-745 isoform Q08499-6): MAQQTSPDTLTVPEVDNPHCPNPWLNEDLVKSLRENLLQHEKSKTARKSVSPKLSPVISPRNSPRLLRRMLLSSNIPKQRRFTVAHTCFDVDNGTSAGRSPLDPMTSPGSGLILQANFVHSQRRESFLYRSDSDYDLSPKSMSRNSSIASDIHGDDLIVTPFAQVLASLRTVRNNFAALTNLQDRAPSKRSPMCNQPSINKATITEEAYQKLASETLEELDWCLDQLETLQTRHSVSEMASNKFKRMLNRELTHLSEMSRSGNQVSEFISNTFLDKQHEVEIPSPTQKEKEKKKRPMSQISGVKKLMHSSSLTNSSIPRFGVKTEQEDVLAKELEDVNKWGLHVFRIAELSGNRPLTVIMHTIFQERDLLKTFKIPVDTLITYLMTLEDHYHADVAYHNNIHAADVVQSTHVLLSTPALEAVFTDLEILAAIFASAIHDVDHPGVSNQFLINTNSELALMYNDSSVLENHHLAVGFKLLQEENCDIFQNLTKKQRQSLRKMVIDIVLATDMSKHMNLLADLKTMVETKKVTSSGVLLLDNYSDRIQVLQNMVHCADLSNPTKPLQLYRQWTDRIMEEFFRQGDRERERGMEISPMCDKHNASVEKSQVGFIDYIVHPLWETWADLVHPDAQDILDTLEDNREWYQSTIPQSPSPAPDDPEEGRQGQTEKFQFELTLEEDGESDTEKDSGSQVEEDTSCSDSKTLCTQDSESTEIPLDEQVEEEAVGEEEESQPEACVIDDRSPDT
T1 sequence (Q07343 with tags, fused parts or gaps): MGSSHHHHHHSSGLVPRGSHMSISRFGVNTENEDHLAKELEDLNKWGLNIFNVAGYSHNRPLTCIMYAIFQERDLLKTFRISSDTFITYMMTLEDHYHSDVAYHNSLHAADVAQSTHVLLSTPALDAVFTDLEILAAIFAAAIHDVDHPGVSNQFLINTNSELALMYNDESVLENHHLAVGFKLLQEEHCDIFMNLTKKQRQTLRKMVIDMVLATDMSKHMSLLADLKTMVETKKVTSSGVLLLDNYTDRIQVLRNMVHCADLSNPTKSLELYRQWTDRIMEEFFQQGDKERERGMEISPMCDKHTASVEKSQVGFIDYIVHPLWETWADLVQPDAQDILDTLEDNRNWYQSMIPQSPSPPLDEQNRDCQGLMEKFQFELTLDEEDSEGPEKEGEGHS

A word on the IC50: it is the midpoint of a concentration-inhibition curve. For the compound `CCOC(=O)c1c(Nc2ccccc2F)sc(C(=O)c2ccc(Cl)cc2)c1N` [Compound 1-22, 4-Amino-5-(4-chloro-benzoyl)-2-(2-fluoro-phenylamino)-thiophene-3-carboxylic acid ethyl ester], the IC50 (in assay [1]; on PDE4D; in assay [2]; in assay [3]) was under 10 µM each time.

As to `COc1ccc(C(=O)c2sc(NC3CCCC3)c(C#N)c2N)c(OC)c1` [Compound 1-43, 4-Amino-2-cyclopentylamino-5-(2,4-dimethoxy-benzoyl)-thiophene-3-carbonitrile], the half-inhibitory concentration (IC50) (in assay [1]; at PDE4D; in assay [2]; in assay [3]) was under 10 µM each time.

With `COc1ccc(Nc2sc(C(=O)c3cnn(-c4ccccc4)c3C)c(N)c2C#N)cc1` [Compound 1-50, 4-Amino-2-(4-methoxy-phenylamino)-5-(5-methyl-1-phenyl-1H-pyrazole-4-carbonyl)-thiophene-3-carbonitrile], the concentration for half-maximal inhibition (IC50) (in assay [1]; at PDE4D; in assay [2]; in assay [3]) was under 10 µM each time.

Regarding `Cc1c(C(=O)c2sc(NC3CCCC3)c(C#N)c2N)cnn1-c1ccccc1` [Compound 1-55, 4-Amino-2-cyclopentylamino-5-(5-methyl-1-phenyl-1H-pyrazole-4-carbonyl)-thiophene-3-carbonitrile], the IC50 (in assay [1]; on PDE4D; in assay [2]; in assay [3]) was under 10 µM throughout.

Turning to `Cc1c(C(=O)c2sc(NCC3CCCO3)c(C#N)c2N)cnn1-c1ccccc1` (stereo not drawn) [Compound 1-57, 4-Amino-5-(5-methyl-1-phenyl-1H-pyrazole-4-carbonyl)-2-[(tetrahydro-furan-2-ylmethyl)-amino]-thiophene-3-carbonitrile], the IC50 in assay [1] was over 10 µM; at PDE4D, under 10 µM; in assay [2], over 10 µM; in assay [3], over 10 µM.

On to `Cc1onc(-c2ccccc2)c1C(=O)c1sc(NC2CCCC2)c(C#N)c1N` [Compound 1-61, 4-Amino-2-cyclopentylamino-5-(5-methyl-3-phenyl-isoxazole-4-carbonyl)-thiophene-3-carbonitrile], for which the IC50 (in assay [1]; on PDE4D; in assay [2]; in assay [3]) was under 10 µM throughout.

Turning to `N#Cc1c(NCCN2CCCCC2)sc(C(=O)c2cc(-c3ccccc3)no2)c1N` [Compound 1-62, 4-Amino-5-(3-phenyl-isoxazole-5-carbonyl)-2-(2-piperidin-1-yl-ethylamino)-thiophene-3-carbonitrile], the IC50 (in assay [1]; on PDE4D; in assay [2]; in assay [3]) was over 10 µM in each case.

In the case of `N#Cc1c(NC2CCCC2)sc(C(=O)c2ccccn2)c1N` [Compound 1-66, 4-Amino-2-cyclopentylamino-5-(pyridine-2-carbonyl)-thiophene-3-carbontrile], the IC50 (in assay [1]; at PDE4D; in assay [2]; in assay [3]) was under 10 µM in each case.

Consider `N#Cc1c(Nc2ccccc2F)sc(C(=O)c2ccc(-c3ccccn3)s2)c1N` [Compound 1-67, 4-Amino-2-(2-fluoro-phenylamino)-5-(5-pyridin-2-yl-thiophene-2-carbonyl)-thiophene-3-carbonitrile], for which the IC50 (in assay [1]; on PDE4D; in assay [2]; in assay [3]) was under 10 µM throughout.

As for `COc1ccc(Nc2sc(C(=O)c3ccc(-c4ccccn4)s3)c(N)c2C#N)cc1` [Compound 1-68, 4-Amino-2-(4-methoxy-phenylamino)-5-(5-pyridin-2-yl-thiophene-2-carbonyl)-thiophene-3-carbonitrile], the IC50 in assay [1] was under 10 µM; on PDE4D, under 10 µM; in assay [2], over 10 µM; in assay [3] it was over 10 µM.

For `N#Cc1cccc(Nc2sc(C(=O)c3ccc(-c4ccccn4)s3)c(N)c2C#N)c1` [Compound 1-69, 4-Amino-2-(3-cyano-phenylamino)-5-(5-pyridin-2-yl-thiophene-2-carbonyl)-thiophene-3-carbonitrile], the IC50 (in assay [1]; on PDE4D; in assay [2]; in assay [3]) was under 10 µM each time.

Take `N#Cc1c(Nc2ccc3c(c2)CCC3)sc(C(=O)c2ccc(-c3ccccn3)s2)c1N` [Compound 1-71, 4-Amino-2-(indan-5-ylamino)-5-(5-pyridin-2-yl-thiophene-2-carbonyl)-thiophene-3-carbonitrile]: the IC50 in assay [1] is under 10 µM; at PDE4D it was under 10 µM; in assay [2], under 10 µM; in assay [3], over 10 µM.

As to `COC(=O)C(CCSC)Nc1sc(C(=O)c2ccc(-c3ccccn3)s2)c(N)c1C#N` (stereo not drawn) [Compound 1-74, 2-[4-Amino-3-cyano-5-(5-pyridin-2-yl-thiophene-2-carbonyl)-thiophen-2-ylamino]-4-methylsulfanyl-butyric acid methyl ester], the IC50 (in assay [1]; on PDE4D; in assay [2]; in assay [3]) was under 10 µM in each case.

With `COc1ccc(CNc2sc(C(=O)c3ccc(-c4ccccn4)s3)c(N)c2C#N)cc1OC` [Compound 1-75, 4-Amino-2-(3,4-dimethoxy-benzylamino)-5-(5-pyridin-2-yl-thiophene-2-carbonyl)-thiophene-3-carbonitrile], the IC50 (in assay [1]; on PDE4D; in assay [2]; in assay [3]) was under 10 µM each time.

On to `N#Cc1c(Nc2ccc(C(=O)NC3CCOC3=O)cc2)sc(C(=O)c2ccc(-c3ccccn3)s2)c1N` (stereo not drawn) [Compound 1-77, 4-[4-Amino-3-cyano-5-(5-pyridin-2-yl-thiophene-2-carbonyl)-thiophen-2-ylamino]-N-(2-oxo-tetrahydro-furan-3-yl)-benzamide], for which the IC50 (in assay [1]; at PDE4D; in assay [2]; in assay [3]) was under 10 µM throughout.

For `N#Cc1c(NC2CCCC2)sc(C(=O)c2ccc(-c3ccccn3)s2)c1N` [Compound 1-78, 4-Amino-2-cyclopentylamino-5-(5-pyridin-2-yl-thiophene-2-carbonyl)-thiophene-3-carbonitrile], the half-inhibitory concentration (IC50) (in assay [1]; at PDE4D; in assay [2]; in assay [3]) was under 10 µM throughout.

In the case of `CCc1ccccc1Nc1sc(C(=O)c2ccc(-c3ccccn3)s2)c(N)c1C#N` [Compound 1-81, 4-Amino-2-(2-ethyl-phenylamino)-5-(5-pyridin-2-yl-thiophene-2-carbonyl)-thiophene-3-carbonitrile], the IC50 in assay [1] is under 10 µM; at PDE4D it was under 10 µM; in assay [2], over 10 µM; in assay [3] it was over 10 µM.

`N#Cc1c(NCCN2CCCCC2)sc(C(=O)c2cc(-c3ccc(Cl)cc3Cl)no2)c1N` [Compound 1-82, 4-Amino-5-[3-(2,4-dichloro-phenyl)-isoxazole-5-carbonyl]-2-(2-piperidin-1-yl-ethylamino)-thiophene-3-carbonitrile]: the half-inhibitory concentration (IC50) (in assay [1]; at PDE4D; in assay [2]; in assay [3]) was over 10 µM throughout.
